Data from US6706663B2, “Herbicidal 3-heterocyclic substituted benzisothiazole and benzisoxazole compounds” (Wyeth, priority 2000, dated 2004).

Assays:
[1] = system: AMBEL (Ambrosia artemisifolia); assay: Postemergence herbicidal evaluation; type: in vivo, L.; details: rate 0.0620 kg/ha
Summary of the method: (§1)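 Seedlings grown about two weeks in flats, sprayed, then kept under standard greenhouse care. Rated visually 4–5 weeks after treatment on a 0–9 scale (stand, vigour, malformation, size, chlorosis, overall appearance) relative to untreated control; repeat tests averaged.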

[2] = system: CASOB (Cassia obtusifolia); assay: Postemergence herbicidal evaluation; type: in vivo, L.; details: rate 0.0620 kg/ha
Summary of the method: as §1

[3] = system: CHEAL (Chenopodium album); assay: Postemergence herbicidal evaluation; type: in vivo, L.; details: rate 0.0620 kg/ha
Summary of the method: as §1

[4] = system: SAGPY (Sagittaria pygmaea); assay: Flooded paddy, preemergence weed control; type: in vivo, L.; details: rate 0.1250 kg/ha, rated 3-4 weeks after treatment, 0-9 rating scale
Summary of the method: (§2)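 Scoring used a 0-9 visual scale relative to control. Before that, seeds or propagules were planted shallowly in silt loam and flooded to 1.5–3 cm, a depth maintained throughout, with greenhouse care during the test.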

[5] = system: ABUTH (Abutilon theophrasti); assay: Postemergence herbicidal evaluation; type: in vivo, Medic.; details: rate 0.0620 kg/ha
Summary of the method: as §1

GALAP (Galium aparine) [6] = assay: Postemergence herbicidal evaluation; type: in vivo; details: rate 0.0620 kg/ha
Summary of the method: as §1

[7] = system: TRZAWR (Wheat, Winter, cv Riband); assay: Postemergence herbicidal evaluation; type: in vivo, Triticum aestivum; details: rate 0.0620 kg/ha
Summary of the method: as §1

[8] = system: MOOVA (Monochoria vaginalis); assay: Flooded paddy, preemergence weed control; type: in vivo, Presl.; details: rate 0.1250 kg/ha, rated 3-4 weeks after treatment, 0-9 rating scale
Summary of the method: as §2

[9] = system: IPOHE (Ipomoea hederacea); assay: Postemergence herbicidal evaluation; type: in vivo, (L.) Jacq.; details: rate 0.0620 kg/ha
Summary of the method: as §1

CYPIR (Cyperus iria) = assay: Flooded paddy, preemergence weed control; type: in vivo; details: rate 0.1250 kg/ha, rated 3-4 weeks after treatment, 0-9 rating scale
Summary of the method: as §2

[10] = system: CYPSE (Cyperus serotinus); assay: Flooded paddy, preemergence weed control; type: in vivo, Rottb.; details: rate 0.1250 kg/ha, rated 3-4 weeks after treatment, 0-9 rating scale
Summary of the method: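 Herbicidal effect was scored visually on a 0–9 scale against an untreated control 3–4 weeks after treatment. Compounds were applied preemergence as 50/50 v/v aqueous/acetone mixtures into flood water (1.5–3 cm deep over silt loam), at roughly 0.0080 to 0.1250 kg/ha active ingredient.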

[11] = system: AMBEL (Ambrosia artemisifolia); assay: Preemergence herbicidal evaluation; type: in vivo, L.; details: Rate 0.2500 kg/ha; preemergence; rated 4-5 weeks after treatment
Summary of the method: (§3)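 Applied before emergence as an aqueous acetone spray over seeded soil. Read-out: 0–9 visual rating covering plant stand, vigor, size, chlorosis, malformation and overall appearance compared with control, taken 4–5 weeks after spraying.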

[12] = system: CASOB (Cassia obtusifolia); assay: Preemergence herbicidal evaluation; type: in vivo, L.; details: Rate 0.2500 kg/ha; preemergence; rated 4-5 weeks after treatment
Summary of the method: as §3

[13] = system: CHEAL (Chenopodium album); assay: Preemergence herbicidal evaluation; type: in vivo, L.; details: Rate 0.2500 kg/ha; preemergence; rated 4-5 weeks after treatment
Summary of the method: as §3

GALAP (Galium aparine) [14] = assay: Preemergence herbicidal evaluation; type: in vivo; details: Rate 0.2500 kg/ha; preemergence; rated 4-5 weeks after treatment
Summary of the method: as §3

ORYSAT (Rice, Tebonnet) [15] = assay: Preemergence herbicidal evaluation; type: in vivo, Oryza sativa, (L.) Tebonnet; details: Rate 0.2500 kg/ha; preemergence; rated 4-5 weeks after treatment
ORYSAT (Rice, Tebonnet) [16] = assay: Postemergence herbicidal evaluation; type: in vivo, Oryza sativa, (L.) Tebonnet; details: rate 0.0620 kg/ha
Summary of the method: as §1

[17] = system: ECHCG (Echinochloa crus-galli); assay: Preemergence herbicidal evaluation; type: in vivo, (L.) Beau; details: Rate 0.2500 kg/ha; preemergence; rated 4-5 weeks after treatment
Summary of the method: as §3

SETVI (Setaria viridis) [18] = assay: Preemergence herbicidal evaluation; type: in vivo, (L.) Beau; details: Rate 0.2500 kg/ha; preemergence; rated 4-5 weeks after treatment
Summary of the method: as §3

SETVI (Setaria viridis) [19] = assay: Postemergence herbicidal evaluation; type: in vivo, (L.) Beau; details: rate 0.0620 kg/ha
Summary of the method: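 Seedlings grown about two weeks were sprayed with compound in 50/50 acetone/water containing 0.5% TWEEN 20, at about 0.0040 to 1.000 kg/ha via nozzle at 40 psi. Plants were kept under greenhouse conditions and visually rated on a 0-9 scale versus control four to five weeks after treatment; replicate tests averaged.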

`Cn1c(C(F)(F)F)cc(=O)n(-c2ccc3snc(-c4ncccn4)c3c2)c1=O` [Compound 12, 1-methyl-3-[3-(2-pyrimidinyl)-1,2-benzisothiazol-5-yl]-6-(trifluoromethyl)uracil] was tested, and the “Postemergence herbicidal rating, AMBEL” value [1] was 9.0, the “Postemergence herbicidal rating, CASOB” value [2] was 9.0 and the “Postemergence herbicidal rating, CHEAL” value [3] was 9.0. The “herbicidal rating, SAGPY” value [4] was 3.7, the “Postemergence herbicidal rating, ABUTH” value [5] was 9.0 and the “Postemergence herbicidal rating, GALAP” value (GALAP (Galium aparine) [6]) was 9.0. For the same compound, the “Postemergence herbicidal rating, TRZAWR” value [7] was 6.0, the “herbicidal rating, MOOVA” value [8] was 9.0 and the “Postemergence herbicidal rating, IPOHE” value [9] was 9.0. The “herbicidal rating, CYPIR” value (CYPIR (Cyperus iria)) was 9.0, the “herbicidal rating, CYPSE” value [10] was 7.0 and the “AMBEL preemergence herbicidal rating” value [11] was 9.0. For the same compound, the “CASOB preemergence herbicidal rating” value [12] was 8.5, the “CHEAL preemergence herbicidal rating” value [13] was 9.0 and the “GALAP preemergence herbicidal rating” value (GALAP (Galium aparine) [14]) was 9.0. For the same compound, the “ORYSAT preemergence herbicidal rating” value (ORYSAT (Rice, Tebonnet) [15]) was 8.5, the “Postemergence herbicidal rating, ORYSAT” value (ORYSAT (Rice, Tebonnet) [16]) was 6.0 and the “ECHCG preemergence herbicidal rating” value [17] was 9.0. The “SETVI preemergence herbicidal rating” value (SETVI (Setaria viridis) [18]) was 9.0 and the “Postemergence herbicidal rating, SETVI” value (SETVI (Setaria viridis) [19]) was 9.0.
